From ChEMBL document CHEMBL3526130, “An evaluation of using rat-derived single-dose neuropharmacokinetic parameters to project accurately large animal unbound brain drug concentrations” (Drug Metab Dispos, 2012)
Blank lines part the entries; values can stand above or below the molecule they belong to.

How the values were obtained:
[1] = AUC(0 to 2 hrs) in Sprague-Dawley rat plasma at 1 mg/kg, sc by LC-MS/MS analysis; type: ADME, organism-based; parameters: time < 2 hr, dose 1 mg/kg, route subcutaneous
[2] = AUC(0 to infinity) in Sprague-Dawley rat plasma at 1 mg/kg, sc by LC-MS/MS analysis; type: ADME, organism-based; parameters: time infinity, dose 1 mg/kg, route subcutaneous
[3] = AUC(0 to 2 hrs) in Sprague-Dawley rat cerebrospinal fluid at 1 mg/kg, sc by LC-MS/MS analysis; type: ADME, organism-based; parameters: time < 2 hr, dose 1 mg/kg, route subcutaneous
[4] = AUC(0 to infinity) in Sprague-Dawley rat cerebrospinal fluid at 1 mg/kg, sc by LC-MS/MS analysis; type: ADME, organism-based; parameters: time infinity, dose 1 mg/kg, route subcutaneous
[5] = Ratio of drug level in brain to plasma in Sprague-Dawley rat at 1 mg/kg, sc by LC-MS/MS analysis; type: ADME, organism-based; parameters: dose 1 mg/kg, route subcutaneous; conditions: read-out: BPR
Nucleic Acid [6] = assay: Ratio of drug level in cerebrospinal fluid to unbound plasma concentration in Sprague-Dawley rat at 1 mg/kg, sc by LC-MS/MS analysis; type: ADME, organism-based; parameters: dose 1 mg/kg, route subcutaneous; conditions: in vivo
[7] = Ratio of unbound brain concentration to drug level in cerebrospinal fluid in Sprague-Dawley rat at 1 mg/kg, sc by LC-MS/MS analysis; type: ADME, organism-based; parameters: dose 1 mg/kg, route subcutaneous; conditions: in vivo
[8] = Ratio of unbound drug level in brain to plasma in Sprague-Dawley rat at 1 mg/kg, sc by LC-MS/MS analysis; type: ADME, organism-based; parameters: dose 1 mg/kg, route subcutaneous
[9] = Unbound fraction in Beagle dog plasma at 0.5 mg/kg, po by LC-MS/MS analysis; type: ADME, organism-based, Canis lupus familiaris; parameters: dose 0.5 mg/kg, route oral
[10] = Unbound fraction in Beagle dog brain at 0.5 mg/kg, po by LC-MS/MS analysis; type: ADME, organism-based, Canis lupus familiaris; parameters: dose 0.5 mg/kg, route oral
[11] = Unbound fraction in cynomolgus monkey plasma at 0.1 mg/kg, sc by LC-MS/MS analysis; type: ADME, organism-based, Macaca fascicularis; parameters: dose 0.1 mg/kg, route subcutaneous
[12] = Unbound fraction in cynomolgus monkey brain at 0.1 mg/kg, sc by LC-MS/MS analysis; type: ADME, organism-based, Macaca fascicularis; parameters: dose 0.1 mg/kg, route subcutaneous
[13] = AUC(0 to 2 hrs) in Sprague-Dawley rat brain at 1 mg/kg, sc by LC-MS/MS analysis; type: ADME, organism-based; parameters: time < 2 hr, dose 1 mg/kg, route subcutaneous
[14] = AUC(0 to infinity) in Sprague-Dawley rat brain at 1 mg/kg, sc by LC-MS/MS analysis; type: ADME, organism-based; parameters: time infinity, dose 1 mg/kg, route subcutaneous
[15] = Ratio of unbound drug level in brain to plasma in Beagle dog at 0.5 mg/kg, po by LC-MS/MS analysis; type: ADME, organism-based, Canis lupus familiaris; parameters: dose 0.5 mg/kg, route oral; conditions: brain and plasma
[16] = Ratio of unbound drug level in brain to plasma in cynomolgus monkey at 0.1 mg/kg, sc by LC-MS/MS analysis; type: ADME, organism-based, Macaca fascicularis; parameters: dose 0.1 mg/kg, route subcutaneous; conditions: brain and plasma
[17] = Ratio of drug level in brain to plasma in cynomolgus monkey at 0.1 mg/kg, sc by LC-MS/MS analysis; type: ADME, organism-based, Macaca fascicularis; parameters: dose 0.1 mg/kg, route subcutaneous; conditions: brain and plasma, read-out: BPR
Nucleic Acid [18] = assay: Ratio of drug level in cerebrospinal fluid to unbound plasma concentration in Beagle dog at 0.5 mg/kg, po by LC-MS/MS analysis; type: ADME, organism-based, Canis lupus familiaris; parameters: dose 0.5 mg/kg, route oral; conditions: in vivo
Nucleic Acid [19] = assay: Ratio of drug level in cerebrospinal fluid to unbound plasma concentration in cynomolgus monkey at 0.1 mg/kg, sc by LC-MS/MS analysis; type: ADME, organism-based, Macaca fascicularis; parameters: dose 0.1 mg/kg, route subcutaneous; conditions: in vivo
[20] = Ratio of unbound brain concentration to drug level in cerebrospinal fluid in Beagle dog at 0.5 mg/kg, po by LC-MS/MS analysis; type: ADME, organism-based, Canis lupus familiaris; parameters: dose 0.5 mg/kg, route oral; conditions: in vivo
[21] = Ratio of unbound brain concentration to drug level in cerebrospinal fluid in cynomolgus monkey at 0.1 mg/kg, sc by LC-MS/MS analysis; type: ADME, organism-based, Macaca fascicularis; parameters: dose 0.1 mg/kg, route subcutaneous; conditions: in vivo
[22] = Unbound fraction in cynomolgus monkey plasma treated with risperidone at 0.1 mg/kg, sc by LC-MS/MS analysis; type: ADME, organism-based, Macaca fascicularis; parameters: dose 0.1 mg/kg, route subcutaneous
[23] = Unbound fraction in cynomolgus monkey brain treated with risperidone at 0.1 mg/kg, sc by LC-MS/MS analysis; type: ADME, organism-based, Macaca fascicularis; parameters: dose 0.1 mg/kg, route subcutaneous
[24] = AUC(0 to 2 hrs) in Beagle dog plasma treated with risperidone at 0.1 mg/kg, sc by LC-MS/MS analysis; type: ADME, organism-based, Canis lupus familiaris; parameters: time < 2 hr, dose 0.1 mg/kg, route subcutaneous
[25] = AUC(0 to 1 hr) in cynomolgus monkey plasma treated with risperidone at 0.1 mg/kg, sc by LC-MS/MS analysis; type: ADME, organism-based, Macaca fascicularis; parameters: time < 1 hr, dose 0.1 mg/kg, route subcutaneous
[26] = AUC(0 to 2 hrs) in Sprague-Dawley rat plasma treated with risperidone at 1 mg/kg, sc by LC-MS/MS analysis; type: ADME, organism-based; parameters: time < 2 hr, dose 1 mg/kg, route subcutaneous
[27] = AUC(0 to infinity) in Sprague-Dawley rat plasma treated with risperidone at 1 mg/kg, sc by LC-MS/MS analysis; type: ADME, organism-based; parameters: time infinity, dose 1 mg/kg, route subcutaneous
[28] = AUC(0 to 2 hrs) in Sprague-Dawley rat cerebrospinal fluid treated with risperidone at 1 mg/kg, sc by LC-MS/MS analysis; type: ADME, organism-based; parameters: time < 2 hr, dose 1 mg/kg, route subcutaneous
[29] = AUC(0 to infinity) in Sprague-Dawley rat cerebrospinal fluid treated with risperidone at 1 mg/kg, sc by LC-MS/MS analysis; type: ADME, organism-based; parameters: time infinity, dose 1 mg/kg, route subcutaneous
[30] = Ratio of drug level in brain to plasma in Sprague-Dawley rat treated with risperidone at 1 mg/kg, sc by LC-MS/MS analysis; type: ADME, organism-based; parameters: dose 1 mg/kg, route subcutaneous; conditions: read-out: BPR
Nucleic Acid [31] = assay: Ratio of drug level in cerebrospinal fluid to unbound plasma concentration in Sprague-Dawley rat treated with risperidone at 1 mg/kg, sc by LC-MS/MS analysis; type: ADME, organism-based; parameters: dose 1 mg/kg, route subcutaneous; conditions: in vivo
[32] = Ratio of unbound brain concentration to drug level in cerebrospinal fluid in Sprague-Dawley rat treated with risperidone at 1 mg/kg, sc by LC-MS/MS analysis; type: ADME, organism-based; parameters: dose 1 mg/kg, route subcutaneous; conditions: in vivo
[33] = Ratio of unbound drug level in brain to plasma in Sprague-Dawley rat treated with risperidone at 1 mg/kg, sc by LC-MS/MS analysis; type: ADME, organism-based; parameters: dose 1 mg/kg, route subcutaneous
[34] = Unbound fraction in Beagle dog plasma treated with risperidone at 0.1 mg/kg, sc by LC-MS/MS analysis; type: ADME, organism-based, Canis lupus familiaris; parameters: dose 0.1 mg/kg, route subcutaneous
[35] = Unbound fraction in Beagle dog brain treated with risperidone at 0.1 mg/kg, sc by LC-MS/MS analysis; type: ADME, organism-based, Canis lupus familiaris; parameters: dose 0.1 mg/kg, route subcutaneous
[36] = AUC(0 to 2 hrs) in Sprague-Dawley rat brain treated with risperidone at 1 mg/kg, sc by LC-MS/MS analysis; type: ADME, organism-based; parameters: time < 2 hr, dose 1 mg/kg, route subcutaneous
[37] = AUC(0 to infinity) in Sprague-Dawley rat brain treated with risperidone at 1 mg/kg, sc by LC-MS/MS analysis; type: ADME, organism-based; parameters: time infinity, dose 1 mg/kg, route subcutaneous
[38] = Ratio of unbound brain concentration to drug level in cerebrospinal fluid in Beagle dog treated with risperidone at 0.1 mg/kg, sc by LC-MS/MS analysis; type: ADME, organism-based, Canis lupus familiaris; parameters: dose 0.1 mg/kg, route subcutaneous; conditions: in vivo
[39] = Ratio of unbound brain concentration to drug level in cerebrospinal fluid in cynomolgus monkey treated with risperidone at 0.1 mg/kg, sc by LC-MS/MS analysis; type: ADME, organism-based, Macaca fascicularis; parameters: dose 0.1 mg/kg, route subcutaneous; conditions: in vivo
[40] = Ratio of unbound drug level in brain to plasma in Beagle dog treated with risperidone at 0.1 mg/kg, sc by LC-MS/MS analysis; type: ADME, organism-based, Canis lupus familiaris; parameters: dose 0.1 mg/kg, route subcutaneous; conditions: brain and plasma
[41] = Ratio of unbound drug level in brain to plasma in cynomolgus monkey treated with risperidone at 0.1 mg/kg, sc by LC-MS/MS analysis; type: ADME, organism-based, Macaca fascicularis; parameters: dose 0.1 mg/kg, route subcutaneous; conditions: brain and plasma
[42] = AUC(0 to 2 hrs) in Beagle dog cerebrospinal fluid treated with risperidone at 0.1 mg/kg, sc by LC-MS/MS analysis; type: ADME, organism-based, Canis lupus familiaris; parameters: time < 2 hr, dose 0.1 mg/kg, route subcutaneous
[43] = AUC(0 to 1 hr) in cynomolgus monkey cerebrospinal fluid treated with risperidone at 0.1 mg/kg, sc by LC-MS/MS analysis; type: ADME, organism-based, Macaca fascicularis; parameters: time < 1 hr, dose 0.1 mg/kg, route subcutaneous
[44] = AUC(0 to 2 hrs) in Beagle dog brain treated with risperidone at 0.1 mg/kg, sc by LC-MS/MS analysis; type: ADME, organism-based, Canis lupus familiaris; parameters: time < 2 hr, dose 0.1 mg/kg, route subcutaneous
[45] = AUC(0 to 1 hr) in cynomolgus monkey brain treated with risperidone at 0.1 mg/kg, sc by LC-MS/MS analysis; type: ADME, organism-based, Macaca fascicularis; parameters: time < 1 hr, dose 0.1 mg/kg, route subcutaneous
[46] = Ratio of drug level in brain to plasma in Beagle dog treated with risperidone at 0.1 mg/kg, sc by LC-MS/MS analysis; type: ADME, organism-based, Canis lupus familiaris; parameters: dose 0.1 mg/kg, route subcutaneous; conditions: brain and plasma, read-out: BPR
[47] = Ratio of drug level in brain to plasma in cynomolgus monkey treated with risperidone at 0.1 mg/kg, sc by LC-MS/MS analysis; type: ADME, organism-based, Macaca fascicularis; parameters: dose 0.1 mg/kg, route subcutaneous; conditions: brain and plasma, read-out: BPR

- AUC(0-t) at 2 h [1]: 122 ng·h/mL
- AUC(0-inf) [2]: 131 ng·h/mL
- AUC(0-t) at 2 h [3]: 3.46 ng·h/mL
- AUC(0-inf) [4]: 5.4 ng·h/mL
- Kp [5]: 1.07
- Ratio (Nucleic Acid [6]): 0.6
- Ratio [7]: 0.74
- Kp uu [8]: 0.44
- fraction unbound [9]: 0.0685
- fraction unbound [10]: 0.026
- fraction unbound [11]: 0.0876
- fraction unbound [12]: 0.0228
- AUC(0-t) at 2 h [13]: 131 ng·h/mL
- AUC(0-inf) [14]: 150 ng·h/mL
- Kp uu [15]: 0.51
- Kp uu [16]: 0.73
- Kp [17]: 2.82
- Ratio (Nucleic Acid [18]): 0.43
- Ratio (Nucleic Acid [19]): 0.78
- Ratio [20]: 1.19
- Ratio [21]: 0.94
Compound: CC(C)S(=O)(=O)N[C@H]1CCOC[C@@H]1c1ccc(-c2ccc(C#N)s2)cc1

- fraction unbound [22]: 0.185
- fraction unbound [23]: 0.105
- AUC(0-t) at 2 h [24]: 77.4 ng·h/mL
- AUC(0-t) at 1 h [25]: 76 ng·h/mL
- AUC(0-t) at 2 h [26]: 184 ng·h/mL
- AUC(0-inf) [27]: 342 ng·h/mL
- AUC(0-t) at 2 h [28]: 3.28 ng·h/mL
- AUC(0-inf) [29]: 12.2 ng·h/mL
- Kp [30]: 0.07
- Ratio (Nucleic Acid [31]): 0.14
- Ratio [32]: 0.31
- Kp uu [33]: 0.04
- fraction unbound [34]: 0.203
- fraction unbound [35]: 0.0903
- AUC(0-t) at 2 h [36]: 13.5 ng·h/mL
- AUC(0-inf) [37]: 69 ng·h/mL
- Ratio [38]: 0.68
- Ratio [39]: 1.03
- Kp uu [40]: 0.27
- Kp uu [41]: 0.19
- AUC(0-t) at 2 h [42]: 6.27 ng·h/mL
- AUC(0-t) at 1 h [43]: 2.54 ng·h/mL
- AUC(0-t) at 2 h [44]: 47.1 ng·h/mL
- AUC(0-t) at 1 h [45]: 24.8 ng·h/mL
- Kp [46]: 0.61
- Kp [47]: 0.33
Compound: Cc1nc2n(c(=O)c1CCN1CCC(c3noc4cc(F)ccc34)CC1)CCCC2O (configuration not stated) [PALIPERIDONE]
